Data on 9 molecules can be found in US9840488B2, “Carbon monoxide releasing molecules and associated methods” (Utah State University, priority 2015, dated 2017).

The format of data set [1] is physicochemical. The note with it: for quantum yield Φ of CO-release reaction / eq. CO released: aerobic CH3CN; for eq. CO released: average of three trials. How it is done:
^1H and ^13C{^1H} NMR spectra (in ppm) were collected using JEOL ECX-300 MHz spectrometer and are referenced to the residual solvent peak in CDCl3 (^1H: 7.26 (singlet) ppm; ^13C 77.16 (singlet) ppm) or DMSO-d6 (^1H: 2.50 ppm (quintet)). J values are given in Hz. IR spectra were collected using a Shimadzu FTIR-8400 as potassium bromide pellets. UV-vis spectra were recorded at ambient temperature using a Hewlett-Packard 8453A diode array spectrophotometer. Fluorescence emission spectra were collected using a Shimadzu RF-530XPC spectrometer in the range of 400-800 nm, with the excitation wavelength corresponding to the absorption maxima of the molecules. The excitation and emission slit widths were set at 1.5 nm for all molecules. Mass spectral data was collected at the Mass Spectrometry Facility, University of California, Riverside. ESI/APCI mass spectra were recorded on an Agilent LCTOF (2006) with a Windows XP based operating system. Elemental analyses were performed by Atlantic Microlab, Inc., Norcross, Ga., using a PE2400 automatic analyzer or at Robertson Microlit Laboratories, Ledgewood, N.J. using a Perkin Elmer CHN Analyzer Model 2400, Series II. […] Quantum yields were determined using potassium ferrioxalate or potassium reinekate as standards to measure photon flux.^[36] Carbon monoxide was quantified as previously described.^[37] […]
A solution of 5 in CD3CN (˜3 mM) was prepared in air under minimal red light and placed in an NMR tube. The NMR tube was then covered with foil, placed in a photo reactor, and irradiated using 419 nm lamps for 24 hours.
A solution of 5 in CD3CN (˜3 mM) was prepared under N2 in a glove box and placed in an NMR tube. The NMR tube was then placed in a photo reactor and irradiated using 419 nm lamps for 24 hours. […]

A further data set deals with Jurkat (JM) cells. Put plainly: MTT cell viability assay, Jurkat cells. The format is cell-based, human. How it is done:
(§1) Jurkat (JM) cells were maintained as previously described by Shorey et al.^[39] A549 human adenocarcinoma cells (ATCC, Manassas, Va.) cells were grown in DMEM/Ham's F-12 1:1 mixture medium supplemented with 10% charcoal-stripped, heat-inactivated fetal bovine serum (FBS; Caisson Laboratories, Logan, Utah) in a humidified incubator at 37° C. with 5% CO2. Cytotoxicity was determined by the colorimetric MTT [3-(4,5-dimethyl-2-thiazolyl)-2,5-diphenyl-2H-tetrazoluim bromide] assay as previously describe.^[40] Briefly, 2.1×10^3 cells/ml for A549 cells or 1×10^5 cells/ml for Jurkat cells. Test compounds were prepared in DMSO, then added to culture media for a maximum final DMSO concentration not greater than 0.1% (v/v). After addition of test compounds at concentrations ranging from 80 nM to 100 μM, cells were incubated for 24 h in the dark, then treated with MTT to assess cell viability as outlined previously.^[40] All experiments were independently replicated three times, and each experimental treatment was performed in triplicate.

The test system of data set [2] is S. aureus (ATCC 33591-MRSA). Put plainly: Minimum inhibitory concentration, blue light vs dark. Format: cell-based. Details: key to Minimum inhibitory concentration (MIC): †: No inhibitory effect against bacterial strain.
Data set [3] deals with T1, bovine serum albumin (BSA) (Bos taurus, UniProt P02769). Put plainly: BSA binding by fluorescence quenching, competitive binding and docking.
T1 sequence (P02769 25-607): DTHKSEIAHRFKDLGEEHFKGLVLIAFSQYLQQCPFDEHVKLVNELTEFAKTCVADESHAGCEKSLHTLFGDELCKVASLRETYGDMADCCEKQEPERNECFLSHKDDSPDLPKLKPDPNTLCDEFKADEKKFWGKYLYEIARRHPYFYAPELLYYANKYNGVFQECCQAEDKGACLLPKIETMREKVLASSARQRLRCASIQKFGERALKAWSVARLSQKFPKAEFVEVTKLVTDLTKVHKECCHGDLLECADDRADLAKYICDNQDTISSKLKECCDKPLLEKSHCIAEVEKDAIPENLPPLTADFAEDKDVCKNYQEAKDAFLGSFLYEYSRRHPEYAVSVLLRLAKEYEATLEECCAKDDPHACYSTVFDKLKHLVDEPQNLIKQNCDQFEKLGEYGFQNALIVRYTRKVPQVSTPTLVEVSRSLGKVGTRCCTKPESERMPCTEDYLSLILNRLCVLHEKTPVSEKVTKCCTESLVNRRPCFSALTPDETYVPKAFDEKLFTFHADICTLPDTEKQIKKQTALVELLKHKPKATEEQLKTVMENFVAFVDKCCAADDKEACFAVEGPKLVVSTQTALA
Another data set concerns S. aureus (ATCC 25923). Put plainly: Minimum inhibitory concentration, blue light vs dark. Format: cell-based. More on the design: key to Minimum inhibitory concentration (MIC): †: No inhibitory effect against bacterial strain.
The subject of another data set is A549 cells. Put plainly: Cellular uptake by fluorescence microscopy. Format: cell-based, human. How it is done: A549 cells were maintained in culture as described above, then seeded into seeded into Millicell E-Z-Slide culture chambers (EMD Millipore, Billerica, Mass.) at an initial density of 7.5×10^4 cells/cm^2 and allowed to adhere to the chamber slides for 24 hr. The cells were then treated for 1 hr with the nuclear dye Hoechst 33342 (0.5% v/v) for 10 min, followed by three washes with plain culture media to remove residual dye. All of incubation and wash steps described below were performed in the dark with minimal light exposure. A 100 mM stock solution of compound 5 was prepared in DMSO and then diluted to a working concentration of 2 mM in culture media (DMEM/Ham's F-12). The compound 5 working stock was diluted again to a final concentration of 50 μM in the culture chamber media, and the cells were incubated for 1 hr. The culture chamber was then gently washed thrice with plain culture media. Cells were fixed with a 1:10 (v/v) solution of formaldehyde fixative (Immunochemistry Technologies, Bloomington, Minn.) and culture media for 5 min, then washed twice with plain culture media. Finally, cells were imaged using a Zeiss Axio Observer inverted microscope (Carl Zeiss Microscopy, Thornwood, N.Y.) equipped with fluorescence detection. Images were acquired using a 10× objective with excitation λ of 450-490 nm (BP 470/40 filter) and emission λ of 500-550 nm (BP 525/50 filter) for detection of compound 5 in A549 cells following 30 sec, 3 min or 10 min exposure to visible light. Also, for localization of the Hoechst dye, a single fluorescence image was acquired at excitation λ at 365 nm; emission λ of 420-470 nm (BP 445/50 filter). Acquired images were universally adjusted to enhance contrast levels (same settings for all acquired images for each detection channel) using Adobe Photoshop CS6 (Adobe, San Jose, Calif.).

In another data set the test system is E. coli (ATCC 25922). Kind of data set: Minimum inhibitory concentration, blue light vs dark. Format: cell-based. More on the design: key to Minimum inhibitory concentration (MIC): †: No inhibitory effect against bacterial strain.
A short description of data set [4]: Solubility and solution stability.
Data set [5] deals with A549 human adenocarcinoma cells. Put plainly: MTT cell viability assay, A549 cells. The format is cell-based. The procedure: as §1
Data set [6] concerns the target T1, bovine serum albumin (BSA). The note with it: literature value, cited from earlier work.

≈ marks a conversion by molar mass, not a printed value. Entries after “also recorded” stand apart in the source; their conditions may differ. Read-outs that look alike come from different tables or passages of the source.

“3-acetate-2-phenyl-benzo[g]chromen-4-one [Compound 12]”: the “stability to visible light relative to 5” value in data set [1] is “significantly more stable”.
Consider `O=c1c(O)c(-c2ccccc2)oc2ccccc12` [3-hydroxyflavone, reference compound], for which the “eq. CO generated” value in [1] (photoinduced reaction with O2, λirr=300 nm) is listed as 0.95 eq.
Turning to `O=c1c(O)c(-c2ccccc2)oc2cc3ccccc3cc12` [Compound 5, 3-Hydroxy-2-phenyl-benzo[g]chromen-4-one], the melting point lay in the range of 208 to 210 °C. In the data set on Jurkat (JM) cells, the “toxicity by MTT cell viability assay” value is recorded as “minimal toxicity”. In [1] (CD3CN in air, tube covered with foil, 419 nm lamps, 24 hours, 1H NMR), the dark control reaction entry is listed as “no reaction had occurred”. Also, the anaerobic control reaction result in [1] (CD3CN under N2, 419 nm lamps, 24 hours, 1H NMR) is given as “no reaction had occurred”. Moreover, in data set [1] (419 nm irradiation), the “quantum yield Φ of CO-release reaction” value is 0.007(3) and the “eq. CO released” value is 0.96(2) eq. The “decrease in the rate of light induced CO-release on binding to BSA” value in data set [1] (compound bound to BSA) is given as “two-fold”. Besides, the “photoinduced CO-release reaction in other solvents” value in data set [1] (methanol and 1:1 H2O:DMSO, 1H NMR and GC head space gas analysis) is recorded as “same reaction occurs”. The “Minimum inhibitory concentration (MIC)” value in [2] (Dark Conditions) is reported as “†”. In data set [2] (Staphylococcus aureus, Light Conditions (blue light)), this molecule yielded an MIC of 55.5 µg/mL (≈ 193 µM). Moreover, the “binding site on BSA” value in [3] (competitive binding with warfarin and ibuprofen, AutoDock Vina docking) is reported as “site 1 (subdomain II A)”. In addition, the “binding affinity to BSA” value in [3] (fluorescence quenching, single binding site) was 3200 M⁻¹. Besides, the “Minimum inhibitory concentration (MIC)” value in the data set on S. aureus (ATCC 25923) (Dark Conditions) is given as “†”. Further, the minimum inhibitory concentration (MIC) with S. aureus (ATCC 25923) (Staphylococcus aureus, ATCC25923, Light Conditions (blue light)) came out at 39.4 µg/mL (≈ 137 µM). Besides, in the data set with A549 cells (50 μM, 1 hr incubation), the “cellular uptake / cell permeability” value is “cell permeable; also recorded: taken up by almost all cells”. Moreover, the intracellular localization entry in the data set on A549 cells (1 hr incubation) is reported as “localized primarily to the cytoplasm”. For the same molecule, the “loss of green fluorescence in cells on exposure to visible light” value in the data set on A549 cells (ten minutes visible light) is “complete loss”. In addition, the “Minimum inhibitory concentration (MIC)” value in the data set with E. coli (ATCC 25922) (Dark Conditions) is “†”. The MIC in the data set with E. coli (ATCC 25922) (Escherichia coli, ATCC25922, Light Conditions (blue light)) was determined as 27.8 µg/mL (≈ 96.4 µM). The “solubility in aqueous DMSO” value in data set [4] (1:1 H2O:DMSO, 0.1% DMSO/RPMI cell culture media) is “soluble”. The “solubility in organic solvents” value in [4] (CH3CN, CH2Cl2, CHCl3, DMSO) is “readily soluble”. In addition, the “solution stability in the presence of ambient O2” value in [4] (acetonitrile, 1:1 DMSO:H2O, or 0.1% DMSO:cell culture media (RPMI-1640; pH=7.4), protected from light) was more than 2 weeks. For the same molecule, in [5], the “toxicity by MTT cell viability assay” value is reported as “minimal toxicity”. For the same molecule, half-maximal inhibition in data set [5] (Homo sapiens, 24 h in the dark, MTT) (IC50) required 41.5 µM.
`O=C(Oc1cc2ccccc2cc1C(=O)O)c1ccccc1` [Compound 6, 3-(benzoyloxy)-2-naphthoic acid]: the “toxicity by MTT cell viability assay” value (in the data set on Jurkat (JM) cells; in data set [5]) was “completely non-toxic” each time.
The molecule `CCN(CC)c1ccc(-c2oc3cc4ccccc4cc3c(=O)c2O)cc1` [Compound 7, 2-(4-(diethylamino)phenyl)-3-hydroxy-4H-benzo[g]chromen-4-one] showed a melting point of 191 to 192 °C. For the same molecule, in data set [1] (419 nm irradiation), the “quantum yield Φ of CO-release reaction” value was 0.006(1) and the “eq. CO released” value is given as 0.99(1) eq.
As to `Oc1c(-c2ccccc2)oc2cc3ccccc3cc2c1=S` [Compound 8, 3-Hydroxy-2-phenyl-4H-benzo[g]chromene-4-thione], in data set [1] (419 nm irradiation), the “quantum yield Φ of CO-release reaction” value is 0.426(3) and the “eq. CO released” value is 1.01(1) eq.
For `CCN(CC)c1ccc(-c2oc3cc4ccccc4cc3c(=S)c2O)cc1` [Compound 9, 2-(4-(diethylamino)phenyl)-3-hydroxy-4H-benzo[g]chromene-4-thione], in [1] (>546 nm irradiation), the “quantum yield Φ of CO-release reaction” value is given as 0.20(1) and the “eq. CO released” value was 1.01(1) eq.
Consider `COc1cccc2c1C(=O)c1c(O)c3c(c(O)c1C2=O)C[C@@](O)(C(=O)CO)C[C@@H]3O[C@H]1C[C@H](N)[C@H](O)[C@H](C)O1` [doxorubicin], for which the “binding affinity to BSA” value in data set [6] was 7300 M⁻¹.
`O=c1c(O)c(-c2ccc(O)c(O)c2)oc2cc(O)cc(O)c12` [quercetin]: in data set [6] (unit not given), the “binding affinity to BSA” value is 3.65×10^7.
